In ChEMBL document CHEMBL4834480, “Discovery of 3,5-Dimethyl-4-Sulfonyl-1H-Pyrrole-Based Myeloid Cell Leukemia 1 Inhibitors with High Affinity, Selectivity, and Oral Bioavailability” (J Med Chem, 2021):
Active and inactive are the calls of the source. No cut-off for these calls is given here.

Columns and labels:
[1] = Intrinsic clearance in human liver microsomes; type: ADME, Microsome; conditions: read-out: CLH
P-gp = P-gp (Homo sapiens, UniProt P08183); assay: Substrate activity at P-gp in human Caco-2 cells assessed as efflux ratio of permeability by LC-MS/MS analysis; type: ADME, cell-based
[2] = biological target: Apoptosis regulator Bcl-2 (Homo sapiens, UniProt P10415); assay: Inhibition of FITC-labeled Bak BH3 peptide binding to GST-tagged BCL2 (1 to 205 residues) (unknown origin) expressed in Escherichia coli BL21 (DE3) at 10 uM incubated for 30 mins fluorescence polarization-based competitive binding assay relative to control
[3] = Oral bioavailability in Sprague-Dawley rat at 10 mg/kg measured up to 24 hrs by LC-MS/MS analysis; type: ADME, organism-based; conditions: in vivo
Bcl-2-like protein 1 = Bcl-2-like protein 1 (Homo sapiens, UniProt Q07817); assay: Binding affinity to human partial length BCL-XL (M1 to R209 residues) expressed in bacterial expression system by BCL2SCAN assay
[4] = Stability in human liver microsomes assessed as parent compound remaining preincubated for 5 mins followed by NADPH addition and measured after 30 mins by LC-MS/MS analysis; type: ADME, Microsome; conditions: time 35 min, read-out: Stabilty
[5] = Stability of the compound in simulated gastric fluid assessed as parent compound remaining measured after 6 hrs; type: ADME; conditions: read-out: Stabilty
[6] = Cmax in Sprague-Dawley rat at 10 mg/kg, po measured up to 24 hrs by LC-MS/MS analysis; type: ADME, organism-based; parameters: route oral, dose 10 mg/kg, time <=24; conditions: in vivo
[7] = Clearance in Sprague-Dawley rat at 3 mg/kg, iv measured up to 24 hrs by LC-MS/MS analysis; type: ADME, organism-based; conditions: in vivo
[8] = Toxicity in BALB/c nude mouse xenografted with human MV4-11 cells assessed as effect on kidney weight at 20 mg/kg, ip administered every two days for 14 days; type: organism-based; conditions: in vivo, 336 h, time 14 day
MV4-11 [9] = assay: Antitumor activity against human MV4-11 cells xenografted in BALB/c nude mouse assessed as tumor growth inhibition by measuring T/C ratio at 60 mg/kg, po administered every two days for 14 days relative to control; type: functional; conditions: time 14 day
Bcl-2-related protein A1 = biological target: T1, Bcl-2-related protein A1 (Homo sapiens, UniProt Q16548); assay: Binding affinity to human partial length BCL2A1 (M1 to G153 residues) expressed in bacterial expression system by BCL2SCAN assay
T1 sequence (Q16548 whole entry): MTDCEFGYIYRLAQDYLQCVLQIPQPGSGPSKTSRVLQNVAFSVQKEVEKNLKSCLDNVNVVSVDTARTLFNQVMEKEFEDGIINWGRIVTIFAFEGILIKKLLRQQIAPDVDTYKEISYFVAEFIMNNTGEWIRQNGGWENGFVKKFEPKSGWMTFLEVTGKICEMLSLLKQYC

[10] = Tmax in Sprague-Dawley rat at 10 mg/kg, po measured up to 24 hrs by LC-MS/MS analysis; type: ADME, organism-based; conditions: in vivo
MV4-11 [11] = assay: Antitumor activity against human MV4-11 cells xenografted in BALB/c nude mouse assessed as induction of tumor necrosis at 60 mg/kg, po administered every two days for 14 days by hematoxyin-eosin staining based analysis; type: functional, organism-based; conditions: time 14.0 day
NCI-H929 [12] = assay: Induction of apoptosis in human NCI-H929 cells assessed as activation of caspase 7 after 4 hrs by luminescence based microplate reader assay; type: functional, cell-based; conditions: dose microM <=5, time 4.0 hrs
[13] = Toxicity in BALB/c nude mouse xenografted with human MV4-11 cells assessed as effect on kidney weight at 60 mg/kg, po administered every two days for 14 days; type: organism-based; conditions: in vivo, 336 h, time 14 day
[14] = biological target: Induced myeloid leukemia cell differentiation protein Mcl-1 (Homo sapiens, UniProt Q07820); assay: Inhibition of FITC-labeled Bak BH3 peptide binding to GST-tagged MCL1 (171 to 327 residues) (unknown origin) expressed in Escherichia coli BL21 (DE3) incubated for 30 mins fluorescence polarization-based competitive binding assay
MV4-11 [15] = assay: Induction of apoptosis in human MV4-11 cells xenografted in BALB/c nude mouse assessed as induction of PARP cleavage at 20 mg/kg, ip administered every two days for 14 days by Western blot analysis; type: functional, organism-based; conditions: time 14.0 day
[16] = Toxicity in BALB/c nude mouse xenografted with human MV4-11 cells assessed as effect on liver weight at 60 mg/kg, po administered every two days for 14 days; type: organism-based; conditions: in vivo, 336 h, time 14 day
K562 = assay: Induction of apoptosis in human K562 cells assessed as activation of caspase 7 up to 5 uM after 4 hrs by luminescence based microplate reader assay; type: functional, cell-based; conditions: dose microM <=5, time 4.0 hrs
[17] = biological target: Voltage-gated inwardly rectifying potassium channel KCNH2 (Homo sapiens, UniProt Q12809); assay: Inhibition of human ERG
MV4-11 [18] = assay: Induction of apoptosis in human MV4-11 cells xenografted in BALB/c nude mouse assessed as induction of PARP cleavage at 60 mg/kg, po administered every two days for 14 days by Western blot analysis; type: functional, organism-based; conditions: time 14.0 day
NCI-H929 [19] = assay: Induction of apoptosis in human NCI-H929 cells measured after 48 hrs by annexinV-FITC/propidium iodide staining based flow cytometry analysis; type: functional, cell-based; conditions: dose 1-5 µM
[20] = Half life in Sprague-Dawley rat at 3 mg/kg, iv measured up to 24 hrs by LC-MS/MS analysis; type: ADME, organism-based; conditions: in vivo
[21] = Permeability of the compound at pH 7.4 measured after 4 hrs by PAMPA assay; type: ADME; conditions: read-out: permeability
[22] = Toxicity in BALB/c nude mouse xenografted with human MV4-11 cells assessed as effect on heart weight at 60 mg/kg, po administered every two days for 14 days; type: organism-based; conditions: in vivo, 336 h, time 14 day
Homo sapiens = organism: Homo sapiens; assay: Selectivity ratio of Kd for human partial length BCL2 (M1 to D211 residues) expressed in bacterial expression system to Kd for human partial length MCL1 ([…] to R329 residues) expressed in bacterial expression system
[23] = Toxicity in BALB/c nude mouse xenografted with human MV4-11 cells assessed as effect on body weight at 60 mg/kg, po administered every two days for 14 days; type: organism-based; conditions: in vivo, 336 h, time 14 day
CYP2D6 = CYP2D6 (Homo sapiens, UniProt P10635); assay: Inhibition of CYP2D6 (unknown origin) at 10 uM preincubated for 5 min followed by NADPH addition and measured after 20 mins by LC-MS/MS analysis relative to control; type: ADME; conditions: time 25 min
[24] = Toxicity in BALB/c nude mouse xenografted with human MV4-11 cells assessed as effect on kidney at 60 mg/kg, po administered every two days for 14 days by hematoxyin-eosin staining based analysis; type: organism-based; conditions: in vivo, 336 h, time 14 day
CYP2C9 = CYP2C9 (Homo sapiens, UniProt P11712); assay: Inhibition of CYP2C9 (unknown origin) at 10 uM preincubated for 5 min followed by NADPH addition and measured after 20 mins by LC-MS/MS analysis relative to control; type: ADME; conditions: time 25 min
[25] = AUCt in Sprague-Dawley rat at 10 mg/kg, po measured up to 24 hrs by LC-MS/MS analysis; type: ADME, organism-based; parameters: route oral, dose 10 mg/kg, time <=24; conditions: in vivo

CYP2C9, sequence (P11712 whole entry): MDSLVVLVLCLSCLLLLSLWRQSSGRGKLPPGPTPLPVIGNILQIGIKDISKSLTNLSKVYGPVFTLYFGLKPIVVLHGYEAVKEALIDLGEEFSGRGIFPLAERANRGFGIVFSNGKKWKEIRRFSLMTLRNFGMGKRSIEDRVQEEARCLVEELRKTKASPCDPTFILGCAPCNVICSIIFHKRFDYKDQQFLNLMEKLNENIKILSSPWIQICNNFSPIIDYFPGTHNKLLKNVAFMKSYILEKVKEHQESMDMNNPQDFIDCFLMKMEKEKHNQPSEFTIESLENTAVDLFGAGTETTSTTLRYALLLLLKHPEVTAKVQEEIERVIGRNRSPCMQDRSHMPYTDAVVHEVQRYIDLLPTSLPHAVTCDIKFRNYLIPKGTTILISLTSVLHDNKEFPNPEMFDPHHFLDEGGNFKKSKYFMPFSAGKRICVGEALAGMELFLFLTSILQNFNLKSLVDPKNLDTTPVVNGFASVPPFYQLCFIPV
Apoptosis regulator Bcl-2, sequence (P10415 whole entry, the tested form may be a part): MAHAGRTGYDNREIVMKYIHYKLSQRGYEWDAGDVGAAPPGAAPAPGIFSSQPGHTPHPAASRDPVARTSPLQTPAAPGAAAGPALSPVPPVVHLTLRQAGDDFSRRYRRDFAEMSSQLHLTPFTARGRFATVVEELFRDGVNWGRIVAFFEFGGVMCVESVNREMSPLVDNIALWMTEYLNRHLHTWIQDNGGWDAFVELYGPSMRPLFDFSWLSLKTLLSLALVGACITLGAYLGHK
Induced myeloid leukemia cell differentiation protein Mcl-1, sequence (Q07820 whole entry, the tested form may be a part): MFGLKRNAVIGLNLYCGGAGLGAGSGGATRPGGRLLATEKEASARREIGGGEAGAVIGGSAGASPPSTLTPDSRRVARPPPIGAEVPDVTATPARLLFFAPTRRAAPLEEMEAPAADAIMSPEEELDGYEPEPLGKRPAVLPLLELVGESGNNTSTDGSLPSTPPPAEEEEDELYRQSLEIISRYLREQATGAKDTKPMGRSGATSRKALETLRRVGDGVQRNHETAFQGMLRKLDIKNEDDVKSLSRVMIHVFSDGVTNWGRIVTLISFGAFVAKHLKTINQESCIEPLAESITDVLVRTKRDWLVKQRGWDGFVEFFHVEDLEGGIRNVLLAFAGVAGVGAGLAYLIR
Bcl-2-like protein 1, sequence (Q07817 whole entry, the tested form may be a part): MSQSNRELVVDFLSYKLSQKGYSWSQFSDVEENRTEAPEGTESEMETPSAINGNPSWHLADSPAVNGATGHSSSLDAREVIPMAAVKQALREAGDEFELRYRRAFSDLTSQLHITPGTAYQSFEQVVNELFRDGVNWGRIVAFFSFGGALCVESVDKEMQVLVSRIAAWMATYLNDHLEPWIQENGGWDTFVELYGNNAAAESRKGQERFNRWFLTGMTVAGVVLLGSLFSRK
CYP2D6, sequence (P10635 whole entry): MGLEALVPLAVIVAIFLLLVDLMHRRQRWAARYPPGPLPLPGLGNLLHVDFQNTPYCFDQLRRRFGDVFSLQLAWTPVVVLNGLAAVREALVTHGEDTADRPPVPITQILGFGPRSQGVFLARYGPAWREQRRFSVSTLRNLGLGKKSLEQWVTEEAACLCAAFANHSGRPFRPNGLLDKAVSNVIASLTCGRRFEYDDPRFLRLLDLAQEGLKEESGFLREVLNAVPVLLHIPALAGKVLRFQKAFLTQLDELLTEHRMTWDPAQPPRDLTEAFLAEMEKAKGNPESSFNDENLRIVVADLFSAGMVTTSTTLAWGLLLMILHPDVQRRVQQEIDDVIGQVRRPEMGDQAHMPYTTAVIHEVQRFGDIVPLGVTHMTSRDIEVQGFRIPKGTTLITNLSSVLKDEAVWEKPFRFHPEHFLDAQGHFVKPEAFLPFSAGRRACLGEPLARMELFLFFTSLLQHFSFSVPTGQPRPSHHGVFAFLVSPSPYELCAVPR
Voltage-gated inwardly rectifying potassium channel KCNH2, sequence (Q12809 whole entry): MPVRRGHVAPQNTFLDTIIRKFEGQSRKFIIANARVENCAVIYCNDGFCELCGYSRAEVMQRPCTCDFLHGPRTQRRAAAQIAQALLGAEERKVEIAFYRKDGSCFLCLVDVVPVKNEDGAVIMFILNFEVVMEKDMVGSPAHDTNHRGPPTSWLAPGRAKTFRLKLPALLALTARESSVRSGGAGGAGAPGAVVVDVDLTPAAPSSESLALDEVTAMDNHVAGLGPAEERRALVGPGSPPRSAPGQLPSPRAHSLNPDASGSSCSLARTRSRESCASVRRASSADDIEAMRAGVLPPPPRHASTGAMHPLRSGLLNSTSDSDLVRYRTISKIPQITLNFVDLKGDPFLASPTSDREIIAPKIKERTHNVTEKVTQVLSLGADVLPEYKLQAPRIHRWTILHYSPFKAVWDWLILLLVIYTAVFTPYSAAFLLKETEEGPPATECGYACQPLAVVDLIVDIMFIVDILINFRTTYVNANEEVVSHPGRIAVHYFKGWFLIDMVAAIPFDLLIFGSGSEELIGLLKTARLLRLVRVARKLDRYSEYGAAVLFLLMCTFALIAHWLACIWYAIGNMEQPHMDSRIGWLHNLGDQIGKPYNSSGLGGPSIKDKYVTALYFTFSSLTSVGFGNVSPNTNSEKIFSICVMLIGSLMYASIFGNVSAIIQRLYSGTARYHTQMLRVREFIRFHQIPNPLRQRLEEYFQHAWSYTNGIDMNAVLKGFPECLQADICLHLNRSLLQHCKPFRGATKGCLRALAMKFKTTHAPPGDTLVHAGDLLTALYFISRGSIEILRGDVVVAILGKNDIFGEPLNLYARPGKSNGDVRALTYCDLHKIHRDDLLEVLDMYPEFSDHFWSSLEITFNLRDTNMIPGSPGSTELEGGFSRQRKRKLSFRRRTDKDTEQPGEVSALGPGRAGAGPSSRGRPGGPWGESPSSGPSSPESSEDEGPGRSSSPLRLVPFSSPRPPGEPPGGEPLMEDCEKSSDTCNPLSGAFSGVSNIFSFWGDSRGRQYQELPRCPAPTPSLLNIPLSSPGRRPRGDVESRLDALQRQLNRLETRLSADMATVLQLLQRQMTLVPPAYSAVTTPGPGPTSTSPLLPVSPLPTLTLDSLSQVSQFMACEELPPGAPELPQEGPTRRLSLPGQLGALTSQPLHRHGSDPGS
P-gp, sequence (P08183 whole entry, the tested form may be a part): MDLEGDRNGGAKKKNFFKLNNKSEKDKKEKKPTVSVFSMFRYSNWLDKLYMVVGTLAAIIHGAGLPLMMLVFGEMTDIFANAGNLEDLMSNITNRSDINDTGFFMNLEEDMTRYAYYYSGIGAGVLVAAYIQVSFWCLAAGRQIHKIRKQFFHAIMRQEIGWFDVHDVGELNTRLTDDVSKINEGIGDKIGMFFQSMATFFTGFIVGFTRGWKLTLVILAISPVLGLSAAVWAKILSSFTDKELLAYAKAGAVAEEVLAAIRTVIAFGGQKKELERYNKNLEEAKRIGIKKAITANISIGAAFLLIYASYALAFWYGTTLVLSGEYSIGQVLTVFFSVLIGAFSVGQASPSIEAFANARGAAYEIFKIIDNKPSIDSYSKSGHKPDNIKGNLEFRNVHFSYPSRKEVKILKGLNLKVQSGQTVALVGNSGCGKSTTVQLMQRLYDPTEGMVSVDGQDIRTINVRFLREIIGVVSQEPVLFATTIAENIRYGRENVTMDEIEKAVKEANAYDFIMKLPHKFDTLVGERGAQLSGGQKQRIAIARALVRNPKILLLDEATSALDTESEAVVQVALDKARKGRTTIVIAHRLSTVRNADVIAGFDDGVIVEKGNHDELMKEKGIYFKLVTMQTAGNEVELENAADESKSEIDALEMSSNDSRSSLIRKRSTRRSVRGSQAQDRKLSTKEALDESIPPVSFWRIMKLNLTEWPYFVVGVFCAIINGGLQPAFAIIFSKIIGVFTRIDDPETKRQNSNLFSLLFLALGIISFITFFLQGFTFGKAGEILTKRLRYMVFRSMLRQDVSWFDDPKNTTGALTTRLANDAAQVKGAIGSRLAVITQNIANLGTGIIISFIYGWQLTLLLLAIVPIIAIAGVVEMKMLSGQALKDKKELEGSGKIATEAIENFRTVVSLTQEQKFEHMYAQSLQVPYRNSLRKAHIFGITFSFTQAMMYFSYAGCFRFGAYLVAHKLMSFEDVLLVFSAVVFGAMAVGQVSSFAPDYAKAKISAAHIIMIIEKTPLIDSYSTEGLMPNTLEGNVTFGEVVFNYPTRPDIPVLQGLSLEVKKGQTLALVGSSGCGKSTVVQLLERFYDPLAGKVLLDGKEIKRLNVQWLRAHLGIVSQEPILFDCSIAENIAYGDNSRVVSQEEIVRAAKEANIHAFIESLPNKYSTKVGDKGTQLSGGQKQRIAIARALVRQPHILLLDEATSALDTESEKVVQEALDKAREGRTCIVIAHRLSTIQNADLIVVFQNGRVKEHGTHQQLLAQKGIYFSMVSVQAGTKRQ

CC(=O)c1ccc(S(=O)(=O)c2c(C)c(C(=O)O)n(CCCOc3cc(C)c(Cl)c(C)c3)c2C)cc1
microsomal CLint [1]: 67.5 µL/min/mg | efflux ratio (P-gp): 0.1 | inhibition [2]: 10% | bioavailability [3]: 41.3% | Kd (Bcl-2-like protein 1): > 10 µM | remaining at 0.5 h [4]: 64% | remaining at 6 h [5]: 84.5% | Cmax [6]: 2010 ng/mL | clearance [7]: 15.2 mL/min/kg | Activity [8]: Non-Toxic | T/C (MV4-11 [9]): 37.3% | Kd (Bcl-2-related protein A1): > 10 µM | Tmax [10]: 0.5 h | Activity (MV4-11 [11]): Active | Activity (NCI-H929 [12]): Dose-Dependent Effect | Activity [13]: Non-Toxic | Ki [14]: 0.02 µM | Activity (MV4-11 [15]): Active | Activity [16]: Non-Toxic | Activity (K562): inactive | IC50 [17]: > 30 µM | Activity (MV4-11 [18]): Active | Activity (NCI-H929 [19]): Dose-Dependent Effect | half-life [20]: 2.3 h | Papp at 4 h [21]: 52.6 ×10⁻⁶ cm/s | Activity [22]: Non-Toxic | Selectivity ratio (Homo sapiens): > 40000 | Activity [23]: Non-Toxic | inhibition at 20 min, 10 µM (CYP2D6): 9.13% | Activity [24]: Non-Toxic | inhibition at 20 min, 10 µM (CYP2C9): 26% | AUC(0-t) at 24 h [25]: 4530 ng·h/mL
